Assay [1] deals with T1, baculovirus-expressed ALK (Homo sapiens, UniProt Q9UM73).
T1 construct: host or cells: baculovirus expression system
The experiment in a line: ALK Kinase Assay (ELISA-type, time-resolved fluorescence). It counts as biochemical. In a few lines:
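Plates coated with phospholipase C-γ substrate (10 μg/mL in TBS); reaction started with 30 ng/ml ALK and run 15 min at 37° C. Phosphorylated substrate detected with Eu-N1-labeled PT66 antibody. IC50 from sigmoidal variable-slope fit of percent inhibition vs log concentration.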
(An ELISA detects its analyte on a solid surface through an enzyme-linked reagent.)

Assay [2] deals with T2, c-Met (cytoplasmic domain) (Homo sapiens, UniProt P08581).
T2 construct: 10 ng/mL c-Met (cytoplasmic domain, Invitrogen Corporation #PV3143); purchased Invitrogen Corporation PV3143
T2 sequence (P08581 956-1390 limits assumed): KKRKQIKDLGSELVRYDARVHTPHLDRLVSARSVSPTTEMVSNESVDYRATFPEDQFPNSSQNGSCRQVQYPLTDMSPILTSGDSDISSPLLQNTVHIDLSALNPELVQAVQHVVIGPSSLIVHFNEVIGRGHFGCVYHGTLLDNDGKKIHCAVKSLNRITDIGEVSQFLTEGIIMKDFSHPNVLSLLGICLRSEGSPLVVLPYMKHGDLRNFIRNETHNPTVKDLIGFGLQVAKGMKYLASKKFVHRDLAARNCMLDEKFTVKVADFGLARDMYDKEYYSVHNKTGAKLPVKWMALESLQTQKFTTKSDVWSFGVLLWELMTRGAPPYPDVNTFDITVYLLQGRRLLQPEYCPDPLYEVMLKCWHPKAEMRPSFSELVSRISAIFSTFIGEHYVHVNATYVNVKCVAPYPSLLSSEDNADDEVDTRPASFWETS
Briefly: c-Met Kinase Assay (same methods as for ALK, with modifications). It counts as biochemical. In a few lines:
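Plates were coated with phospholipase C-γ substrate (10 μg/mL) in TBS, and the reaction was started with 10 ng/mL c-Met cytoplasmic domain and run 15 min at 37 °C. Phosphoproduct was detected with Eu-N1-labelled PT66 antibody. IC50 came from a variable-slope sigmoidal fit of percent inhibition vs log concentration.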

[3] abbreviates: 1 μM ATP (Km level), read-out: ALK Activity (ALK Kinase Inhibition, IC50).
Where [4] appears, read: 1 μM ATP (Km level), read-out: cMet Activity (c-Met Kinase Inhibition, IC50).
[5] abbreviates: ALK kinase inhibition, 1 μM ATP, read-out: ALK Activity.
[6] abbreviates: c-Met kinase inhibition, 1 μM ATP, read-out: cMet Activity.
[7] abbreviates: ALK kinase inhibition, 1 μM ATP (Km level), read-out: ALK Activity.
[8] abbreviates: c-Met kinase inhibition, 1 μM ATP (Km level), read-out: cMet Activity.

Like-named read-outs stand apart in the source and are kept apart here.

T1 sequence (Q9UM73 19-1620): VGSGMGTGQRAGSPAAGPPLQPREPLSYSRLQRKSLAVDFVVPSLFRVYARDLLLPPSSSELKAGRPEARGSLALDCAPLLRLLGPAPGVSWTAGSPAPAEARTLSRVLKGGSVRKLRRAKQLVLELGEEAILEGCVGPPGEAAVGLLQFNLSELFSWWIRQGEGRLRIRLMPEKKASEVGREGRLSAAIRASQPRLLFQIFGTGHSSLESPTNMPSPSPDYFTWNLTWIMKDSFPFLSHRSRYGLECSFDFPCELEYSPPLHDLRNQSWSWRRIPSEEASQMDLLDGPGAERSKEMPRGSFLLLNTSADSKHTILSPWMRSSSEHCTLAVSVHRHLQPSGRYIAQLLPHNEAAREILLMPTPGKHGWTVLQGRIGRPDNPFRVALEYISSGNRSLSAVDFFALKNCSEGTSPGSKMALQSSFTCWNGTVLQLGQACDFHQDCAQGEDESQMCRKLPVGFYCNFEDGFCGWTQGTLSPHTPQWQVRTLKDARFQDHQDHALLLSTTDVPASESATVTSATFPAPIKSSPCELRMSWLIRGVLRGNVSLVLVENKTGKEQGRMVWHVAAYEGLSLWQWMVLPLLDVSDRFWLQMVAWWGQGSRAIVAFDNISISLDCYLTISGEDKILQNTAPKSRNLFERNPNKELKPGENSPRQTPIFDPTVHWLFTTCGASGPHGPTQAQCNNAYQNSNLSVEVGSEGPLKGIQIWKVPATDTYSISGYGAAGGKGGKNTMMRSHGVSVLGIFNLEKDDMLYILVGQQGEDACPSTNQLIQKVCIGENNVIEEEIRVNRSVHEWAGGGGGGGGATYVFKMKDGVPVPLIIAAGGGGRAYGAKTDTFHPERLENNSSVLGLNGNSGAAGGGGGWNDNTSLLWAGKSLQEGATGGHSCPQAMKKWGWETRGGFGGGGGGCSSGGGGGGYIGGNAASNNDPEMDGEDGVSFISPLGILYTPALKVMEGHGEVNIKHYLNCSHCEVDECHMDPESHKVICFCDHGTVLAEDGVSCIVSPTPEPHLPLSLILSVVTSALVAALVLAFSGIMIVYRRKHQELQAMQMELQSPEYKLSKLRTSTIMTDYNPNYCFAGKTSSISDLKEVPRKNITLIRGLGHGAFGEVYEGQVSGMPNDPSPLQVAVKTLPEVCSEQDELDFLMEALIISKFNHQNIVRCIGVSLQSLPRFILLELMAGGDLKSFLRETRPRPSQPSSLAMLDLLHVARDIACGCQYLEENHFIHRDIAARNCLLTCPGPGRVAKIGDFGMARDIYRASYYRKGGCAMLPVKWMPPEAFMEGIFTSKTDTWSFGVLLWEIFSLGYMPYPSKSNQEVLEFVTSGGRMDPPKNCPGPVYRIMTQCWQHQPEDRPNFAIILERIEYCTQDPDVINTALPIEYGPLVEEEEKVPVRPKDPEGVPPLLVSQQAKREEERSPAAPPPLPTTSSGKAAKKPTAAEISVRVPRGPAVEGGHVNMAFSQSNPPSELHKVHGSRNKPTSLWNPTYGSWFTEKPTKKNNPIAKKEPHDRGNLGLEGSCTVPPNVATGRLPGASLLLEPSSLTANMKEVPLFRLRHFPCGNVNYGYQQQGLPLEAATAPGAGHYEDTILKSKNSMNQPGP

Consider `CCN1C(=O)CCCc2cc(Nc3ncc(Cl)c(Nc4ccc(OC)cc4-n4cccn4)n3)c(OC)cc21` [Example 614, 7-[5-Chloro-4-(4-methoxy-2-pyrazol-1-yl-phenylamino)-pyrimidin-2-ylamino]-1-ethyl-8-methoxy-1,3,4,5-tetrahydro-benzo[b]azepin-2-one], for which the IC50 in assay [1] (setting [3]) is under 100 nM; in assay [2] (setting [4]), over 10000 nM.

In the case of `CN1CCc2ccc(Nc3ncc(Cl)c(Nc4ccccc4-c4cc[nH]n4)n3)cc2CC1=O` [Example 1825, 8-{5-Chloro-4-[2-(1H-pyrazol-3-yl)-phenylamino]-pyrimidin-2-ylamino}-3-methyl-1,3,4,5-tetrahydro-benzo[d]azepin-2-one], the IC50 in assay [1] (setting [5]) and in assay [2] (setting [6]) was over 10000 nM in each case.

In the case of `COc1cc2c(cc1Nc1ncc(Cl)c(Nc3ccc(C(F)(F)F)cc3S(=O)(=O)N(C)C)n1)CCN(CC(=O)N(C)C)CC2` [Example 843, 2-{7-[5-Chloro-4-(2-dimethylsulfamoyl-4-trifluoromethyl-phenylamino)-pyrimidin-2-ylamino]-8-methoxy-1,2,4,5-tetrahydro-benzo[d]azepin-3-yl}-N,N-dimethyl-acetamide], the IC50 in assay [1] (setting [3]) is under 100 nM; in assay [2] (setting [4]), over 10000 nM.

In the case of `COc1cc(N2CCOCC2)ccc1Nc1nc(Nc2ccc3c(c2)N(CC(C)C)C(=O)CCC3(C)C)ncc1Cl` [Example 1594, 8-[5-Chloro-4-(2-methoxy-4-morpholin-4-yl-phenylamino)-pyrimidin-2-ylamino]-1-isobutyl-5,5-dimethyl-1,3,4,5-tetrahydro-benzo[b]azepin-2-one], the IC50 is under 100 nM in assay [1] (setting [5]) and over 10000 nM in assay [2] (setting [6]).

On to `CCN1C(=O)CCC(C)(C)c2ccc(Nc3ncc(Cl)c(Nc4c(F)cc(F)cc4C(=O)NC)n3)cc21` [Example 1615, 2-[5-Chloro-2-(1-ethyl-5,5-dimethyl-2-oxo-2,3,4,5-tetrahydro-1H-benzo[b]azepin-8-ylamino)-pyrimidin-4-ylamino]-3,5-difluoro-N-methyl-benzamide], for which the IC50 in assay [1] (setting [5]) and in assay [2] (setting [6]) was under 100 nM in each case.

As for `C#CCNC(=O)c1cccc(F)c1Nc1nc(Nc2ccc3c(c2)N(C(=O)CN2C(=O)c4ccccc4C2=O)CCCC3(C)C)ncc1Cl` [Example 1618, 2-(5-Chloro-2-{1-[2-(1,3-dioxo-1,3-dihydro-isoindol-2-yl)-acetyl]-5,5-dimethyl-2,3,4,5-tetrahydro-1H-benzo[b]azepin-8-ylamino}-pyrimidin-4-ylamino)-3-fluoro-N-prop-2-ynyl-benzamide], the IC50 in assay [1] (setting [5]) was over 10000 nM; in assay [2] (setting [6]) it was under 100 nM.

Regarding `CCN1C(=O)CN(CC(=O)N(C)C)Cc2cc(OC)c(Nc3ncc(Cl)c(Nc4ccc(N5CCOCC5)cc4OC)n3)cc21` [Example 727, 2-{8-[5-Chloro-4-(2-methoxy-4-morpholin-4-yl-phenylamino)-pyrimidin-2-ylamino]-1-ethyl-7-methoxy-2-oxo-1,2,3,5-tetrahydro-benzo[e][1,4]diazepin-4-yl}-N,N-dimethyl-acetamide], the IC50 was 100 to 1000 nM in assay [1] (setting [3]) and over 10000 nM in assay [2] (setting [4]).

On to `Cn1ccnc1-c1ccccc1Nc1nc(Nc2ccc3c(c2)C(C)(C)CCC(=O)N3)ncc1Cl` [Example 397, 7-{5-Chloro-4-[2-(1-methyl-1H-imidazol-2-yl)-phenylamino]-pyrimidin-2-ylamino}-5,5-dimethyl-1,3,4,5-tetrahydro-benzo[b]azepin-2-one], for which the IC50 in assay [1] (setting [7]) is under 100 nM; in assay [2] (setting [8]), 100 to 1000 nM.

As to `COc1cc2c(cc1Nc1ncc(Cl)c(Nc3ccc(N4CCOCC4)cc3OC)n1)N(C)CCN(C[C@@H](O)C(F)(F)F)C2` [Example 496, (R)-3-{8-[5-Chloro-4-(2-methoxy-4-morpholin-4-yl-phenylamino)-pyrimidin-2-ylamino]-7-methoxy-1-methyl-1,2,3,5-tetrahydro-benzo[e][1,4]diazepin-4-yl}-1,1,1-trifluoro-propan-2-ol], the IC50 is under 100 nM in assay [1] (setting [7]) and over 10000 nM in assay [2] (setting [8]).

For `CS(=O)(=O)N[C@@H]1CCCC[C@H]1Nc1nc(Nc2cccc3c2OCCCC3)ncc1Cl` [Example 863, N-{(1R,2R)-2-[5-Chloro-2-(2,3,4,5-tetrahydro-benzo[b]oxepin-9-ylamino)pyrimidin-4-ylamino]-cyclohexyl}-methanesulfonamide], the values for the IC50 in assay [1] (setting [3]) and in assay [2] (setting [4]) were under 100 nM and over 10000 nM, respectively.

For the compound `CCN1C(=O)CCCc2ccc(Nc3ncc(Cl)c(Nc4c(C)cccc4C(=O)NC)n3)cc21` [Example 360, 2-[5-Chloro-2-(1-ethyl-2-oxo-2,3,4,5-tetrahydro-1H-benzo[b]azepin-8-ylamino)-pyrimidin-4-ylamino]-3,N-dimethyl-benzamide], the IC50 in assay [1] (setting [7]) is 1000 to 10000 nM; in assay [2] (setting [8]) it was under 100 nM.

Consider `CNC(=O)c1cccc(F)c1Nc1nc(Nc2ccc3c(c2)N(CCOC)C(=O)CCC3)ncc1Br` [Example 1473, 2-{5-Bromo-2-[1-(2-methoxy-ethyl)-2-oxo-2,3,4,5-tetrahydro-1H-benzo[b]azepin-8-ylamino]-pyrimidin-4-ylamino}-3-fluoro-N-methyl-benzamide], for which the figures for the IC50 in assay [1] (setting [5]) and in assay [2] (setting [6]) were 100 to 1000 nM and under 100 nM, respectively.

`CNC(=O)c1ccccc1Nc1nc(Nc2ccc3c(c2)C(C)(C)CCC(=O)N3C)ncc1Cl` [Example 384, 2-[5-Chloro-2-(1,5,5-trimethyl-2-oxo-2,3,4,5-tetrahydro-1H-benzo[b]azepin-7-ylamino)-pyrimidin-4-ylamino]-N-methyl-benzamide]: the IC50 in assay [1] (setting [7]) and in assay [2] (setting [8]) was under 100 nM throughout.

With `CC1(C)CCC(=O)Nc2cc(Nc3ncc(Cl)c(N[C@H]4[C@@H](C(N)=O)[C@@H]5C=C[C@H]4C5)n3)ccc21` [Example 1236, (1S,2S,3R,4R)-3-[5-Chloro-2-(5,5-dimethyl-2-oxo-2,3,4,5-tetrahydro-1H-1-benzazepin-8-ylamino)-pyrimidin-4-ylamino]-bicyclo[2.2.1]hept-5-ene-2-carboxylic acid amide], the IC50 was under 100 nM in assay [1] (1 μM ATP (Km level), 30 ng/ml ALK, 37° C., 15 minutes, read-out: ALK Activity (ALK kinase inhibition, IC50 class)) and under 100 nM in assay [2] (1 μM ATP (Km level), 10 ng/mL c-Met, read-out: cMet Activity (c-Met kinase inhibition, IC50 class)).

As for `CS(=O)(=O)N[C@@H]1CCCC[C@H]1Nc1nc(Nc2ccc3c(c2)CCN(C[C@H](O)C(F)(F)F)CC3)ncc1Cl` [Example 329, N-((1R,2R)-2-{5-Chloro-2-[3-((S)-3,3,3-trifluoro-2-hydroxy-propyl)-2,3,4,5-tetrahydro-1H-benzo[d]azepin-7-ylamino]-pyrimidin-4-ylamino}-cyclohexyl)-methanesulfonamide], the IC50 in assay [1] (setting [7]) is under 100 nM; in assay [2] (setting [8]), 1000 to 10000 nM.

Regarding `CNC(=O)c1ccccc1Nc1nc(Nc2ccc3c(c2OC)CCC(N2CCOCC2)CC3)ncc1Cl` (racemic) [Example 915, 2-[5-Chloro-2-(1-methoxy-7-morpholin-4-yl-6,7,8,9-tetrahydro-5H-benzocyclohepten-2-ylamino)-pyrimidin-4-ylamino]-N-methyl-benzamide], the IC50 was under 100 nM in assay [1] (setting [3]) and 1000 to 10000 nM in assay [2] (setting [4]).

On to `CNC(=O)c1cccc(F)c1Nc1nc(Nc2ccc3c(c2)CCC(N2CCN(C)CC2)CC3)ncc1Cl` (racemic) [Example 899, 2-{5-Chloro-2-[7-(4-methyl-piperazin-1-yl)-6,7,8,9-tetrahydro-5H-benzocyclohepten-2-ylamino]-pyrimidin-4-ylamino}-3-fluoro-N-methyl-benzamide], for which the IC50 in assay [1] (setting [3]) and in assay [2] (setting [4]) was under 100 nM throughout.
